Measured values taken from PubChem BioAssay (NCI).
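1) Cells in 96-well plates. 2) Compound, 48 h, 5 concentrations. 3) Linear interpolation between surrounding doses. 4) Unreached endpoint = highest concentration. TGI is the concentration that stops growth completely.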

How the values were obtained:
Test in all cases: DTP human tumour cell line panel, 48 h
SNB-75 CNS = tested on: SNB-75 CNS
IGROV1 ovarian = tested on: IGROV1 ovarian
OVCAR-4 ovarian = tested on: OVCAR-4 ovarian
HCT-116 colon = tested on: HCT-116 colon
DMS 273 small cell lung = tested on: DMS 273 small cell lung
SN12C renal = tested on: SN12C renal
NCI-H522 lung = tested on: NCI-H522 lung
SF-539 CNS = tested on: SF-539 CNS
SR leukemia = tested on: SR leukemia
MALME-3M melanoma = tested on: MALME-3M melanoma
UACC-257 melanoma = tested on: UACC-257 melanoma
LOX IMVI melanoma = tested on: LOX IMVI melanoma
SK-MEL-5 melanoma = tested on: SK-MEL-5 melanoma
SW-620 colon = tested on: SW-620 colon
HOP-92 NSCLC = tested on: HOP-92 NSCLC
SK-MEL-28 melanoma = tested on: SK-MEL-28 melanoma
U251 CNS = tested on: U251 CNS
CAKI-1 renal = tested on: CAKI-1 renal
HOP-62 NSCLC = tested on: HOP-62 NSCLC
SF-295 CNS = tested on: SF-295 CNS
UACC-62 melanoma = tested on: UACC-62 melanoma
NCI-H23 lung = tested on: NCI-H23 lung
KM20L2 colon = tested on: KM20L2 colon
CCRF-CEM leukemia = tested on: CCRF-CEM leukemia
HOP-18 NSCLC = tested on: HOP-18 NSCLC
SNB-19 CNS = tested on: SNB-19 CNS
OVCAR-3 ovarian = tested on: OVCAR-3 ovarian
UO-31 renal = tested on: UO-31 renal
RXF 393 renal = tested on: RXF 393 renal
NCI-H460 lung = tested on: NCI-H460 lung
SF-268 CNS = tested on: SF-268 CNS
HCC-2998 colon = tested on: HCC-2998 colon
XF 498 CNS = tested on: XF 498 CNS
786-0 renal = tested on: 786-0 renal
OVCAR-5 ovarian = tested on: OVCAR-5 ovarian
M14 melanoma = tested on: M14 melanoma
KM12 colon = tested on: KM12 colon
ACHN renal = tested on: ACHN renal
A549 NSCLC = tested on: A549 NSCLC
HT29 colon = tested on: HT29 colon
MOLT-4 leukemia = tested on: MOLT-4 leukemia
COLO 205 colon = tested on: COLO 205 colon
RXF-631 renal = tested on: RXF-631 renal
HCT-15 colon = tested on: HCT-15 colon
RPMI-8226 leukemia = tested on: RPMI-8226 leukemia
A498 renal = tested on: A498 renal
SK-OV-3 ovarian = tested on: SK-OV-3 ovarian
OVCAR-8 ovarian = tested on: OVCAR-8 ovarian
DLD-1 colon = tested on: DLD-1 colon
M19-MEL melanoma = tested on: M19-MEL melanoma
SK-MEL-2 melanoma = tested on: SK-MEL-2 melanoma
HL-60(TB) leukemia = tested on: HL-60(TB) leukemia
LXFL 529 NSCLC = tested on: LXFL 529 NSCLC
SNB-78 CNS = tested on: SNB-78 CNS
EKVX NSCLC = tested on: EKVX NSCLC
NCI-H226 lung = tested on: NCI-H226 lung
TK-10 renal = tested on: TK-10 renal
K-562 leukemia = tested on: K-562 leukemia

SMILES: COc1cc2c(c(O)c1O)-c1ccc(OC)c(=O)cc1C(NC(C)=O)CC2 (stereo not drawn)
- TGI (SNB-75 CNS): 16.6 µM
- TGI (IGROV1 ovarian): > 100 µM
- TGI (OVCAR-4 ovarian): > 84.2 µM
- TGI (HCT-116 colon): > 62.8 µM
- TGI (DMS 273 small cell lung): > 100 µM
- TGI (SN12C renal): > 80.8 µM
- TGI (NCI-H522 lung): 6.48 µM
- TGI (SF-539 CNS): 24 µM
- TGI (SR leukemia): 74.3 µM
- TGI (MALME-3M melanoma): > 100 µM
- TGI (UACC-257 melanoma): > 100 µM
- TGI (LOX IMVI melanoma): 34.8 µM
- TGI (SK-MEL-5 melanoma): 16.2 µM
- TGI (SW-620 colon): 51.6 µM
- TGI (HOP-92 NSCLC): 31.1 µM
- TGI (SK-MEL-28 melanoma): > 100 µM
- TGI (U251 CNS): 25.8 µM
- TGI (CAKI-1 renal): > 100 µM
- TGI (HOP-62 NSCLC): > 100 µM
- TGI (SF-295 CNS): 41.4 µM
- TGI (UACC-62 melanoma): 45.7 µM
- TGI (NCI-H23 lung): 54.7 µM
- TGI (KM20L2 colon): 11 µM
- TGI (CCRF-CEM leukemia): 37.1 µM
- TGI (HOP-18 NSCLC): > 100 µM
- TGI (SNB-19 CNS): > 100 µM
- TGI (OVCAR-3 ovarian): 8.3 µM
- TGI (UO-31 renal): > 100 µM
- TGI (RXF 393 renal): 43.8 µM
- TGI (NCI-H460 lung): 87.7 µM
- TGI (SF-268 CNS): > 100 µM
- TGI (HCC-2998 colon): > 78.1 µM
- TGI (XF 498 CNS): 38.5 µM
- TGI (786-0 renal): > 82.8 µM
- TGI (OVCAR-5 ovarian): > 100 µM
- TGI (M14 melanoma): > 100 µM
- TGI (KM12 colon): 25.7 µM
- TGI (ACHN renal): > 100 µM
- TGI (A549 NSCLC): > 100 µM
- TGI (HT29 colon): > 70.3 µM
- TGI (MOLT-4 leukemia): > 64.3 µM
- TGI (COLO 205 colon): 12.6 µM
- TGI (RXF-631 renal): > 92.9 µM
- TGI (HCT-15 colon): > 100 µM
- TGI (RPMI-8226 leukemia): > 43.7 µM
- TGI (A498 renal): > 89.9 µM
- TGI (SK-OV-3 ovarian): 60.4 µM
- TGI (OVCAR-8 ovarian): > 100 µM
- TGI (DLD-1 colon): > 100 µM
- TGI (M19-MEL melanoma): 26.1 µM
- TGI (SK-MEL-2 melanoma): 16.5 µM
- TGI (HL-60(TB) leukemia): 5.29 µM
- TGI (LXFL 529 NSCLC): 44.3 µM
- TGI (SNB-78 CNS): > 100 µM
- TGI (EKVX NSCLC): > 100 µM
- TGI (NCI-H226 lung): 92.7 µM
- TGI (TK-10 renal): > 100 µM
- TGI (K-562 leukemia): 29.1 µM
